Columns and labels:
C. elegans [1] = test: Rescue of C. elegans delta-12 FAT RNAi feeding phenotype by fatty acid methyl esters; assay type: cell-based, Caenorhabditis elegans; settings: 3 mM added to the NGM media
Source text: RNAi by feeding: C. elegans can be grown on lawns of E. coli genetically engineered to produce double stranded RNA (dsRNA) designed to inhibit delta-12 fat-2 expression. Briefly, E. coli were transformed with a genomic fragment of a portion of the C. elegans fat-2 gene sequence, specifically a fragment 651 nucleotides long, containing the entire first exon and terminating just before the conserved intron splice junction between the first exon and first intron. This construct encodes approximately the first 217 amino acids of the C. elegans delta-12 FAT gene. The 651 nucleotide genomic fragment was cloned into an E. coli expression vector between opposing T7 polymerase promoters. The clone was then transformed into a strain of E. coli that carries an IPTG-inducible T7 polymerase. As a control, E. coli was transformed with a gene encoding the Green Fluorescent Protein (GFP). Feeding RNAi was initiated from C. elegans eggs or from C. elegans […]. […] When feeding RNAi was started from C. elegans L4 larvae at 23° C. on NGM plates containing IPTG and E. coli expressing the C. elegans […] […] The sequence of the fat-2 gene is of sufficiently high complexity (i.e., unique) such that the RNAi is not likely to represent cross reactivity with other genes. […]

C. elegans [2] = test: Nematicidal activity of single fatty acid methyl ester emulsions against Caenorhabditis elegans (Example 4); assay type: cell-based
Method: Mixed stage Caenorhabditis elegans were washed off plates seeded with OP50 bacteria using M9 solution. 250 μl of the M9 solution, which contained about 50 worms, was pipetted into each well of a 24-well plate.
(§1) Fatty acid methyl ester emulsions were prepared following the teachings of Kim et al (U.S. Pat. No. 5,698,592). Briefly, 1 ml 1% stock solution emulsions were prepared by mixing 10 μl of fatty acid methyl ester with 20 μl of the surfactant Igepal CO 630 in a 1.5 ml eppendorf tube. After careful mixing of fatty acid and Igepal CO 630, 850 μl of ddH20 was added and mixed by gentle pipetting until a homogeneous solution was obtained. Finally, 120 μl of pure isopropanol was added and mixed by gentle pipetting. This stock solution was then used to produce various fatty acid methyl ester dilution emulsions in 24-well plate assays.
To each well, fatty acid emulsions or control emulsions were added and rapidly mixed by swirling. Nematode viability was scored by visual observation and motility assays at various time points 24 hours following addition of emulsions or controls. The fatty acid emulsions tested were methyl esters of nonanoic (pelargonic) acid, ricinoleic acid, vernolic acid, linoleic acid, oleic acid, and control emulsions lacking fatty acids.

M. javanica [3] = test: Nematicidal activity of fatty acid methyl ester emulsions against root knot nematode J2 larvae (Example 6); assay type: cell-based, Meloidogyne javanica; settings: 0.1% emulsion; 48 hours incubation, counted about 24 hours after transfer to plates
Method: as §1
(§2) Meloidogyne incognita and javanica were prepared from tomato roots. The roots were bleached and the debris was separated from the J2 larvae and eggs by filtration followed by sucrose density gradient centrifugation. Eggs were hatched over 4 days at 15° C. and the J2 larvae were collected by passage though a filter, followed by centrifugation.
(§3) Nematodes and emulsions were incubated with shaking at room temperature for 48 hours. The contents of each well were transferred to a small spot on individual NGM plates lacking bacteria. About 24 hours after the transfer to plates, worms on and off the inoculation spot were counted as not viable or viable, respectively. Worms were considered viable if they had crawled away from the inoculation spot, or if they were moving. Worms were considered non-viable if they remained at the inoculation spot.

M. incognita [4] = test: as above; assay type: cell-based, Meloidogyne incognita; settings: 0.1% emulsion; 48 hours incubation, counted about 24 hours after transfer to plates
Method: as §1, §2, §3

tomato seedlings = test: Phytotoxicity evaluation on tomato seedlings; assay type: in vivo; settings: 250 μl of 1% emulsion applied to stem-media interface of two-week seedlings
Method: Sterilized tomato seeds were germinated in magenta jars containing Gamborg's agar media. After two weeks of growth, seedlings were treated with 250 μl of 1% fatty acid methyl ester emulsion (nonanoic acid, ricinoleic acid, ricinelaidic acid, oleic acid, or a control emulsion lacking any fatty acid), applied directly to the stem-media interface. Tomato seedlings were scored at various times after application of emulsions.

C. elegans [5] = test: Nematicidal activity of fatty acid methyl ester emulsions, spectrum (Example 8); assay type: cell-based, Caenorhabditis elegans; settings: C. elegans mixed stage
Method: (§4) Briefly, the indicated fatty acid emulsions were added and rapidly mixed by swirling. Nematode viability was scored by visual observation and motility assays 24 hours following addition of emulsions (48 hours for plant parasitic nematodes Meloidogyne and Heterodera species). The fatty acid emulsions tested were methyl esters of nonanoic (pelargonic) acid, ricinelaidic acid, ricinoleic acid, vernolic acid, linoleic acid, and oleic acid. […] Results shown are mean % values obtained from multiple independent experiments
(§5) The Caenorhabiditis elegans were mixed stage populations. Similar effects seen on several other free-living nematode species. The Parastrongyloides trichosuri (parasite of Australian bushtail possum) were dauer-like infective 3rd stage larva. Similar effects are also seen against free-living stages. The Meloidogyne incognita and Meloidogyne javanica (root knot nematode) were 2nd stage juveniles (dauer-like infective stage). The Heterodera glycines (soybean cyst nematode) were 2nd stage juveniles (dauer-like infective stage). Finally, the Pratylenchus scribneri (corn lesion nematode) were mixed stage populations.

P. trichosuri = test: as above; assay type: cell-based, Parastrongyloides trichosuri; settings: P. trichosuri infective 3rd stage larva
Method: as §4, §5

H. glycines = test: as above; assay type: cell-based, Heterodera glycines; settings: H. glycines 2nd stage juveniles, scored at 48 hours
Method: as §4, §5

P. scribneri = test: as above; assay type: cell-based, Pratylenchus scribneri; settings: P. scribneri mixed stage
Method: as §4, §5

B. malayi = test: Nematicidal activity of tween-based emulsions against microfilarial nematodes; assay type: cell-based, Brugia malayi
Method: To each well, tween-based fatty acid emulsions were added and rapidly mixed by swirling. Nematode microfilaria viability was scored by visual observation of motility at 24 and 48 hours following addition of emulsions. The fatty acid emulsions tested were methyl esters of ricinoleic acid, vernolic acid, ricinelaidic acid, oleic acid, and control emulsions lacking fatty acids. The results of this study are presented in Table 7 as the percentage of non-motile microfilaria 24 hours after inoculation and in Table 8 as the percentage of non-motile microfilaria 48 hours after inoculation

M. incognita [6] = test: Nematicidal activity of fatty acid methyl ester emulsions, spectrum (Example 8); assay type: cell-based, Meloidogyne incognita; settings: M. incognita 2nd stage juveniles, scored at 48 hours
Method: as §4, §5

M. javanica [7] = test: as above; assay type: cell-based, Meloidogyne javanica; settings: M. javanica 2nd stage juveniles, scored at 48 hours
Method: as §4, §5

C. elegans [8] = test: Nematicidal activity of emulsions made with Tween-20 (replacing Igepal CO 630) against C. elegans; assay type: cell-based, Caenorhabditis elegans; settings: Tween-20 emulsion
Method: Some nematodes assayed as described in Example 9 lacked tolerance to emulsions made with the surfactant Igepal CO 630. For this reason some assays were repeated with Tween-20-based emulsions.
Briefly, 1 ml 1% stock solution emulsions were prepared by mixing 10 μl of fatty acid methyl ester with 20 μl of the surfactant Tween-20 in a 1.5 ml eppendorf tube. After careful mixing of fatty acid and Tween-20, 850 μl of ddH20 was added and mixed by gentle pipetting until a homogeneous solution was obtained. Finally, 120 μl of pure isopropanol was added and mixed by gentle pipetting. This stock solution was then used to produce various fatty acid methyl ester dilution emulsions in 24-well plate assays.

C. elegans [9] = test: Nematicidal activity of emulsions made with cyclodextrins (replacing isopropanol) against C. elegans; assay type: cell-based, Caenorhabditis elegans; settings: igepal CO 630 / 2-Hydroxypropyl-β-Cyclodextrin emulsion
Source text: In an effort to increase the bioavailability of fatty acid methyl esters in emulsions, isopropanol was replaced with one of two cyclodextrins (Methyl-β-Cyclodextrin or 2-Hydroxypropyl-β-Cyclodextrin).

[10] = tested on: everted hamster jejunal and ileal segments; settings: Gaginella et al. (1975); cited from earlier work
[11] = tested on: isolated intestinal epithelial cells; settings: Gaginella et al. (1977); cited from earlier work

Row | SMILES | Rescue of the delta-12 FAT RNAi feeding phenotype (C. elegans [1]) | Percentage of Worm Death (C. elegans [2]; 0.003% emulsion, 1 hr) | Percentage of Worm Death (C. elegans [2]; 0.003% emulsion, 6 hr) | Percentage of Worm Death (C. elegans [2]; 0.003% emulsion, 24 hr) | Percentage of Worm Death (C. elegans [2]; 0.1% emulsion, 1 hr) | Percentage of Worm Death (C. elegans [2]; 0.1% emulsion, 6 hr) | Percentage of Worm Death (C. elegans [2]; 0.1% emulsion, 24 hr) | % Worm Death (24 hr) (C. elegans [5]; 0.01% solution) [%] | % Worm Death (24 hr) (C. elegans [5]; 0.1% solution) [%] | % Worm Death (24 hr) (P. trichosuri; 0.01% solution) | % Worm Death (24 hr) (P. trichosuri; 0.1% solution) | % Worm Death (24 hr) (H. glycines; 0.001% solution) [%] | % Worm Death (24 hr) (H. glycines; 0.01% solution) [%] | % Worm Death (24 hr) (H. glycines; 0.1% solution) [%] | % Worm Death (24 hr) (P. scribneri; 0.01% solution) [%] | % Worm Death (24 hr) (P. scribneri; 0.1% solution) [%] | other results
1 | CCCCCCCC/C=C\CCCCCCCC(=O)OC [Oleic Acid (C18-methyl ester), oleic acid methyl ester, reference compound] | does not rescue | 0-5% | 0-5% | 0-5% | 0-5% | 0-5% | 0-5% | <10 | <10 | ˜10% | ˜10% | <10 | <10 | <10 | <20 | <20 | M. javanica (% not viable) (M. javanica [3]): 20%; M. incognita (% not viable) (M. incognita [4]): 25%; Visible effects on tomato seedlings (tomato seedlings): none of the tomatoes treated with the other fatty acid methyl ester emulsions showed visible effects; percentage of non-motile microfilaria (B. malayi; 24 hrs post-inoculation, 0.0008%): 0%; percentage of non-motile microfilaria (B. malayi; 24 hrs post-inoculation, 0.0016%): 0%; percentage of non-motile microfilaria (B. malayi; 24 hrs post-inoculation, 0.003%): 0%; percentage of non-motile microfilaria (B. malayi; 24 hrs post-inoculation, 0.005%): 0%; percentage of non-motile microfilaria (B. malayi; 24 hrs post-inoculation, 0.0067%): 0%; percentage of non-motile microfilaria (B. malayi; 24 hrs post-inoculation, 0.008%): 0%; percentage of non-motile microfilaria (B. malayi; 48 hrs post-inoculation, 0.0008%): 0%; percentage of non-motile microfilaria (B. malayi; 48 hrs post-inoculation, 0.0016%): 0%; percentage of non-motile microfilaria (B. malayi; 48 hrs post-inoculation, 0.003%): 0%; percentage of non-motile microfilaria (B. malayi; 48 hrs post-inoculation, 0.005%): 0%; percentage of non-motile microfilaria (B. malayi; 48 hrs post-inoculation, 0.0067%): 0%; percentage of non-motile microfilaria (B. malayi; 48 hrs post-inoculation, 0.008%): 0%
2 | CCCCC/C=C\C/C=C\CCCCCCCC(=O)OC [Linoleic Acid (C18-methyl ester), linoleic acid methyl ester, reference compound] | partial rescue | 0-5% | 0-5% | 0-5% | 0-5% | 0-5% | 0-5% | <10 | <10 | ˜25% | ˜25% | <20 | <20 | <20 | <20 | <20 | % Worm Death (24 hr) (C. elegans [5]; 0.001% solution): <10%; % Worm Death (24 hr) (M. incognita [6]; 0.01% solution): 20%; % Worm Death (24 hr) (M. incognita [6]; 0.1% solution): 20%; % Worm Death (48 hr) (M. javanica [7]; 0.01% solution): 0-5%; % Worm Death (48 hr) (M. javanica [7]; 0.1% solution): 20%; % Worm Death (24 hr) (C. elegans [8]; 0.01% solution): <10%; % Worm Death (24 hr) (C. elegans [8]; 0.1% solution): <10%; % Worm Death (24 hr) (C. elegans [9]; 0.01% solution): <10%; % Worm Death (24 hr) (C. elegans [9]; 0.1% solution): <10%
3 | CCCCCC[C@@H](O)C/C=C\CCCCCCCC(=O)O [Ricinoleic acid, reference compound] |  |  |  |  |  |  |  |  |  |  |  |  |  |  |  |  | Effect on water (and electrolyte) absorption [10]: inhibitory effect on water and electrolyte absorption; Cytotoxicity [11]: cytotoxic

From patent publication US6903052B2, “Nematicidal compositions and methods” (Divergence, Inc., priority 2002, dated 2005)
